According to patent US20080076926A1, “Process for the preparation of 4-hydroxythieno[2,3-b]pyridine-5-carbonitriles” (priority 2006, published 2008):

melting point [°C]	SMILES
202 to 204	N#Cc1cnc2sc(-c3ccccc3)cc2c1Cl [Example 16, 4-chloro-2-phenylthieno[2,3-b]pyridine-5-carbonitrile]
110 to 112	Cc1cc2c(Cl)c(C#N)cnc2s1 [Example 10, 4-chloro-2-methylthieno[2,3-b]pyridine-5-carbonitrile]

More lines, now with the values behind:

SMILES	melting point [°C]
CC(C)c1c(I)sc2ncc(C#N)c(Cl)c12 [Example 8, 4-chloro-2-iodo-3-isopropylthieno[2,3-b]pyridine-5-carbonitrile]	177 to 179
Cc1csc2[nH]cc(C#N)c(=O)c12 [Example 3, 3-methyl-4-oxo-4,7-dihydrothieno[2,3-b]pyridine-5-carbonitrile]	285
N#Cc1cnc2sc(Br)cc2c1O [Example 30, 2-bromo-4-hydroxythieno[2,3-b]pyridine-5-carbonitrile]	> 255
